Among the test systems are Listeria monocytogenes; Escherichia coli; Klebsiella pneumoniae; Escherichia coli P4; Klebsiella aerogenes; Enterobacter cloacae; Pseudomonas aeruginosa; Serratia marcescens; Streptococcus agalactiae; Candida albicans; Staphylococcus aureus; Escherichia coli AS1.349; Bacillus cereus AS1.126.
What all share (assay): ≥ marks a high value that may be exact or a test limit, other limits are often not marked, values filed in µg/mL are converted to µM
Test [1] deals with Staphylococcus aureus A172.
The test system of test [2] is Staphylococcus aureus A170.
For test [3], the system named is Staphylococcus epidermidis.
The test system of test [4] is Salmonella enterica subsp. enterica serovar Paratyphi A.
Test [5] concerns Staphylococcus aureus 007.
Test [6] deals with Listeria monocytogenes LO28.
In test [7] the test system is Cronobacter sakazakii DPC 6440.
Test [8] has as its system Escherichia coli ATCC 25922.
In test [9] the test system is Staphylococcus aureus ATCC 29213.
Test [10] relates to Xanthomonas axonopodis pv. glycines ISBF 327.
For test [11], the system named is Acinetobacter calcoaceticus.
For test [12], the system named is Staphylococcus aureus ATCC 25023.
Test [13] deals with Klebsiella pneumoniae subsp. pneumoniae CGMCC 1.176.
For test [14], the system named is Enterococcus faecalis CGMCC 1.595.
The test system of test [15] is Proteus mirabilis CICC 22931.
Test [16] deals with Acinetobacter baumannii CICC 22934.
The test system of test [17] is Enterobacter cloacae CGMCC 1.58.
In test [18] the test system is Staphylococcus aureus AS1.72.
For test [19], the system named is Enterococcus faecium CGMCC 1.2334.
Test [20] relates to Klebsiella aerogenes CGMCC 1.876.
Test [21] concerns Lactococcus lactis AS1.1690.
Test [22] has as its system Pseudomonas aeruginosa CGMCC 1.860.
For test [23], the system named is Fusobacterium nucleatum CGMCC 1.2526.
Test [24] concerns Streptococcus salivarius CGMCC 1.2498.
Test [25] relates to Lactobacillus acidophilus CGMCC 1.1854.
Test [26] has as its system Streptococcus mutans CGMCC 1.2500.
Test [27] concerns Streptococcus sanguinis CGMCC 1.2497.
For test [28], the system named is Candida albicans CMCC 98001.

Molecules are shown by their SMILES. Converted amounts (≈) assume the structure as drawn. A value given as a limit tells only on which side of the number the result lay.

What is called MIC is the lowest concentration that inhibits growth of the organism. As to `CC[C@H](C)[C@H](NC(=O)[C@@H]1CCCN1C(=O)[C@H](CC(C)C)NC(=O)[C@H](CC(C)C)NC(=O)[C@H](Cc1ccc(O)cc1)NC(=O)[C@H](CCCCN)NC(=O)[C@@H](N)CCCCN)C(=O)N[C@H](C(=O)NCC(=O)N[C@@H](CC(N)=O)C(=O)N[C@@H](CC(C)C)C(=O)N[C@@H](CC(C)C)C(=O)N[C@@H](CCCCN)C(=O)N[C@@H](CO)C(=O)N[C@@H](CC(C)C)C(=O)N[C@@H](CC(C)C)C(N)=O)C(C)C` [KKYLLPIVGNLLKSLL], the MIC against Listeria monocytogenes came to 5.52 µM (≈ 9.99 µg/mL); in the test on Escherichia coli, 11 µM (≈ 20 µg/mL); in test [1], 13.8 µM (≈ 25 µg/mL); in [2], 11 µM (≈ 20 µg/mL); in test [3] it was 3.86 µM (≈ 7 µg/mL); in [4] it was 11 µM (≈ 20 µg/mL). Further, the minimal inhibitory concentration (MIC) in test [5] worked out at 5.52 µM (≈ 9.99 µg/mL).

In the case of `CC[C@H](C)[C@H](NC(=O)[C@@H](N)Cc1c[nH]c2ccccc12)C(=O)N[C@@H](CCC(N)=O)C(=O)N1CCC[C@H]1C(=O)N[C@@H](C)C(=O)N[C@H](C(=O)N[C@@H](CCCCN)C(=O)N[C@H](C(=O)N[C@H](C(=O)N1CCC[C@H]1C(=O)N[C@@H](Cc1ccc(O)cc1)C(=O)N[C@H](C(=O)N[C@@H](CCCN=C(N)N)C(=O)N[C@@H](Cc1ccc(O)cc1)C(=O)N[C@@H](CC(C)C)C(=O)O)C(C)C)[C@@H](C)CC)C(C)C)[C@@H](C)O` [WIQPATKVIPYVRYL], the MIC was at least 39.1 µM in test [6] and at least 156 µM in [7].

As for `CC[C@H](C)[C@H](NC(=O)[C@H](Cc1ccccc1)NC(=O)[C@H](CC(N)=O)NC(=O)[C@H](CCCCN)NC(=O)[C@H](CCCN=C(N)N)NC(=O)[C@H](C)NC(=O)[C@H](CCCCN)NC(=O)[C@H](Cc1c[nH]c2ccccc12)NC(=O)[C@@H](N)CCCCN)C(=O)N[C@@H](CCCCN)C(=O)NCC(=O)N[C@@H](CO)C(=O)N[C@@H](CO)C(=O)N[C@@H](CC(C)C)C(=O)NCC(=O)N[C@@H](Cc1c[nH]c2ccccc12)C(=O)N[C@@H](CC(C)C)C(=O)N[C@H](C(=O)N[C@@H](CCC(N)=O)C(=O)N[C@@H](CC(C)C)C(=O)N[C@@H](Cc1ccccc1)C(=O)N[C@@H](CCCN=C(N)N)C(=O)N[C@@H](CCCCN)C(=O)N[C@@H](CCCN=C(N)N)C(=O)O)[C@@H](C)CC` [KWKARKNFIKGSSLGWLIQLFRKR], the minimum inhibitory concentration (MIC) with Klebsiella pneumoniae was determined as 15.3 µM (≈ 45.3 µg/mL); against Escherichia coli P4 it was 10.8 µM (≈ 32 µg/mL); in the test with Escherichia coli it was 15.3 µM (≈ 45.3 µg/mL); in the test on Klebsiella aerogenes it was 21.6 µM (≈ 64 µg/mL); in test [8], 15.3 µM (≈ 45.3 µg/mL); against Enterobacter cloacae it was 15.3 µM (≈ 45.3 µg/mL). The MIC with Pseudomonas aeruginosa was 43.2 µM (≈ 128 µg/mL); in [9], 21.6 µM (≈ 64 µg/mL); in the test with Serratia marcescens, at least 173 µM.

Turning to `CC[C@H](C)[C@H](NC(=O)[C@H](C)NC(=O)[C@H](Cc1cnc[nH]1)NC(=O)[C@@H]1CCCN1C(=O)[C@@H](NC(=O)[C@H](CC(C)C)NC(=O)[C@H](CO)NC(=O)[C@H](CC(C)C)NC(=O)[C@@H](N)Cc1ccccc1)[C@@H](C)CC)C(=O)N[C@@H](CC(N)=O)C(=O)N[C@@H](C)C(=O)N[C@H](C(=O)N[C@@H](CO)C(=O)N[C@H](C(=O)N[C@@H](CC(C)C)C(=O)N[C@H](C(=O)N[C@@H](Cc1cnc[nH]1)C(=O)N[C@@H](Cc1cnc[nH]1)C(=O)N[C@@H](Cc1ccccc1)C(N)=O)C(C)C)[C@@H](C)O)C(C)C` [FLSLIPHAINAVSTLVHHF], the MIC against Streptococcus agalactiae is 1.9 µM (≈ 4.02 µg/mL); in the test with Candida albicans, 15.1 µM (≈ 31.9 µg/mL); against Staphylococcus aureus it was 7.6 µM (≈ 16.1 µg/mL); in test [8] it was 15 µM (≈ 31.7 µg/mL); in test [10], at least 121 µM; against Pseudomonas aeruginosa, 60.4 µM (≈ 128 µg/mL). The MIC in test [11] is 3.7 µM (≈ 7.83 µg/mL).

Regarding `CC(C)C[C@H](NC(=O)[C@H](CCCN=C(N)N)NC(=O)[C@H](CC(C)C)NC(=O)[C@H](CC(C)C)NC(=O)[C@H](CC(C)C)NC(=O)[C@H](CCCCN)NC(=O)[C@H](CC(C)C)NC(=O)[C@@H](N)CCCN=C(N)N)C(N)=O` [RLKLLLRL], in [12], the MIC is at least 125 µM.

With `CC(C)C[C@H](NC(=O)CNC(=O)[C@H](Cc1ccccc1)NC(=O)[C@H](CCCN=C(N)N)NC(=O)[C@H](CCCN=C(N)N)NC(=O)[C@H](CC(C)C)NC(=O)[C@H](Cc1cnc[nH]1)NC(=O)[C@H](CCCN=C(N)N)NC(=O)CNC(=O)[C@@H](NC(=O)[C@H](C)NC(=O)[C@@H](N)CO)C(C)C)C(=O)N[C@@H](CCCN=C(N)N)C(=O)N[C@@H](CCCCN)C(=O)N[C@@H](Cc1cnc[nH]1)C(=O)N[C@@H](CCCN=C(N)N)C(=O)N[C@@H](CCCCN)C(=O)N[C@@H](Cc1cnc[nH]1)C(=O)O` [SAVGRHLRRFGLRKHRKH], the minimal inhibitory concentration (MIC) in test [13] was at least 100 µM; in [14], 12.5 µM (≈ 27.6 µg/mL); in test [15] it was at least 100 µM; in test [16], at least 100 µM; in [17] it was at least 100 µM; in [18], 9.38 µM (≈ 20.7 µg/mL). Also, the minimal inhibitory concentration (MIC) in test [19] is 12.5 µM (≈ 27.6 µg/mL); in test [20] it was at least 100 µM; in test [21], 18.8 µM (≈ 41.5 µg/mL); with Escherichia coli AS1.349, at least 100 µM; in the test on Bacillus cereus AS1.126, 6.25 µM (≈ 13.8 µg/mL); in test [22], at least 100 µM.

Turning to `CC[C@H](C)[C@H](N)C(=O)N[C@@H](CCCCN)C(=O)N[C@@H](CCCCN)C(=O)N[C@H](C(=O)N[C@H](C(=O)N[C@@H](CO)C(=O)N[C@@H](CCCCN)C(=O)N[C@H](C(=O)N[C@@H](CCCCN)C(=O)N[C@@H](CCCCN)C(=O)N[C@@H](CC(C)C)C(=O)N[C@@H](CC(C)C)C(N)=O)[C@@H](C)CC)C(C)C)[C@@H](C)CC` [IKKIVSKIKKLL], the MIC was determined as 6.25 µM (≈ 8.81 µg/mL) in test [13]; 6.25 µM (≈ 8.81 µg/mL) in [14]; 18.8 µM (≈ 26.4 µg/mL) in test [23]; 6.25 µM (≈ 8.81 µg/mL) in test [24]; 25 µM (≈ 35.2 µg/mL) in test [25]; 12.5 µM (≈ 17.6 µg/mL) in [26]. For the same compound, the minimum inhibitory concentration (MIC) turned out to be 3.12 µM (≈ 4.4 µg/mL) in test [17]; 3.13 µM (≈ 4.41 µg/mL) in test [27]; 3.12 µM (≈ 4.4 µg/mL) in [18]; 6.25 µM (≈ 8.81 µg/mL) in test [19]; 3.12 µM (≈ 4.4 µg/mL) in test [20]; 3.12 µM (≈ 4.4 µg/mL) in test [21]. For the same compound, the MIC stood at 3.12 µM (≈ 4.4 µg/mL) in the test on Escherichia coli AS1.349, 12.5 µM (≈ 17.6 µg/mL) in test [28], 3.12 µM (≈ 4.4 µg/mL) against Bacillus cereus AS1.126 and 3.12 µM (≈ 4.4 µg/mL) in [22].

(Values after DBAASP.)
